Results: the supplement of paper PMC13380429

Columns and labels:
A549-ACE2 [1] = experiment: phospholipidosis EC50; higher = less potent phospholipidosis inducer
A549-ACE2 [2] = experiment: drug-induced phospholipidosis relative to tamoxifen; higher = more phospholipidosis
U2OS [3] = experiment: cell viability relative to DMSO; higher = less toxic; conditions: 72 h
Vero E6 [4] = experiment: as above; conditions: 72 h
Calu-3 [5] = experiment: as above; conditions: 72 h
Caco-2 [6] = experiment: as above; conditions: 72 h
HepG2 [7] = experiment: as above; conditions: 72 h
[8] = tested on: A549-ACE2 infected with SARS-CoV-2; experiment: morphology score (similarity to uninfected cells); higher = more like uninfected cells; conditions: 24 h
[9] = tested on: A549-ACE2 infected with SARS-CoV-2; experiment: SARS-CoV-2 infection rate relative to DMSO; higher = more infection; conditions: 24 h
[10] = tested on: A549-ACE2 infected with SARS-CoV-2; experiment: cell count relative to DMSO; higher = less toxic; conditions: 24 h
U2OS [11] = experiment: drug sensitivity score (DSS) for viability; higher = more toxic; extreme values may be limits of the assay; conditions: 72 h
Vero E6 [12] = experiment: as above; conditions: 72 h
Calu-3 [13] = experiment: as above; conditions: 72 h
Caco-2 [14] = experiment: as above; conditions: 72 h
HepG2 [15] = experiment: as above; conditions: 72 h
U2OS [16] = experiment: relative viability EC50 (midpoint between 100% and the lowest measured viability); higher = less toxic; conditions: 72 h
Vero E6 [17] = experiment: as above; conditions: 72 h
Calu-3 [18] = experiment: as above; conditions: 72 h
Caco-2 [19] = experiment: as above; conditions: 72 h
HepG2 [20] = experiment: as above; conditions: 72 h

CC(Cc1ccccc1)NCCC(c1ccccc1)c1ccccc1 (stereo unspecified) [prenylamine]
Conditions | SARS-CoV-2 infection rate [%] | cell count [%] | cell viability [%] | morphology score | phospholipidosis EC50 [µM]
A549-ACE2 [1], 24 h | – | – | – | – | 3.65
A549-ACE2 [1], 48 h | – | – | – | – | 4.62
A549-ACE2 [1], 72 h | – | – | – | – | 6.27
Caco-2 [6], 1 nM | – | – | 112 | – | –
Caco-2 [6], 10 nM | – | – | 101 | – | –
Caco-2 [6], 100 nM | – | – | 93.6 | – | –
Caco-2 [6], 1000 nM | – | – | 100 | – | –
Caco-2 [6], 10000 nM | – | – | 87.1 | – | –
Calu-3 [5], 1 nM | – | – | 103 | – | –
Calu-3 [5], 10 nM | – | – | 106 | – | –
Calu-3 [5], 100 nM | – | – | 95.3 | – | –
Calu-3 [5], 1000 nM | – | – | 106 | – | –
Calu-3 [5], 10000 nM | – | – | 17.9 | – | –
HepG2 [7], 1 nM | – | – | 110 | – | –
HepG2 [7], 10 nM | – | – | 110 | – | –
HepG2 [7], 100 nM | – | – | 101 | – | –
HepG2 [7], 1000 nM | – | – | 107 | – | –
HepG2 [7], 10000 nM | – | – | 64.5 | – | –
U2OS [3], 1 nM | – | – | 97.2 | – | –
U2OS [3], 10 nM | – | – | 94.7 | – | –
U2OS [3], 100 nM | – | – | 97.3 | – | –
U2OS [3], 1000 nM | – | – | 100 | – | –
U2OS [3], 10000 nM | – | – | 85.7 | – | –
Vero E6 [4], 1 nM | – | – | 103 | – | –
Vero E6 [4], 10 nM | – | – | 110 | – | –
Vero E6 [4], 100 nM | – | – | 102 | – | –
Vero E6 [4], 1000 nM | – | – | 102 | – | –
Vero E6 [4], 10000 nM | – | – | 89.3 | – | –
[8], 0.3 µM | – | – | – | -0.03 | –
[8], 3 µM | – | – | – | 0.78 | –
[8], 10 µM | – | – | – | 0.92 | –
[8], 30 µM | – | – | – | -0.09 | –
[9], 0.3 µM | 108 | – | – | – | –
[9], 3 µM | 47 | – | – | – | –
[9], 10 µM | 6 | – | – | – | –
[9], 30 µM | 43 | – | – | – | –
[10], 0.3 µM | – | 103 | – | – | –
[10], 3 µM | – | 119 | – | – | –
[10], 10 µM | – | 123 | – | – | –
[10], 30 µM | – | 19 | – | – | –

drug-induced phospholipidosis [%], A549-ACE2 [2]
Conditions | 0.3 µM | 0.833333 µM | 3.33333 µM | 6.66667 µM | 10 µM
24 h | 2.14 | 1.61 | 44.8 | 88.2 | 97.4
48 h | 3.35 | 0.12 | 33.5 | 85 | 103
72 h | 3.19 | 2.37 | 29.7 | 74.3 | 100

Conditions | drug sensitivity score | relative viability EC50 [µM]
Caco-2 [14] | 0.1 | –
Caco-2 [19] | – | > 10
Calu-3 [13] | 4.1 | –
Calu-3 [18] | – | 3.51
HepG2 [15] | 1.3 | –
U2OS [11] | 0.2 | –
U2OS [16] | – | > 10
Vero E6 [12] | 0 | –
Vero E6 [17] | – | > 10

O=C(NCc1ccccc1)c1csc(Nc2ccncn2)n1 [thiazovivin]
drug-induced phospholipidosis [%], A549-ACE2 [2]
Conditions | 0.3 µM | 0.833333 µM | 3.33333 µM | 6.66667 µM | 10 µM | 30 µM
24 h | -0.85 | -1.1 | -1.59 | -0.13 | 1.72 | 4.97
48 h | -1.39 | -3.9 | -3.92 | -1.45 | -1.05 | 3.79
72 h | -0.652 | -4.81 | -3.84 | -1.69 | 1.23 | –

Conditions | SARS-CoV-2 infection rate, [9] [%] | cell count, [10] [%] | cell viability, Caco-2 [6] [%] | cell viability, Calu-3 [5] [%] | cell viability, HepG2 [7] [%] | cell viability, U2OS [3] [%] | cell viability, Vero E6 [4] [%] | morphology score, [8]
1 nM | – | – | 95.1 | 102 | 90.1 | 105 | 101 | –
10 nM | – | – | 96.8 | 95.5 | 97.8 | 100 | 101 | –
100 nM | – | – | 97.3 | 109 | 101 | 100 | 99.1 | –
0.1 µM | 98 | 115 | – | – | – | – | – | 0.31
0.3 µM | 101 | 108 | – | – | – | – | – | 0.18
1000 nM | – | – | 100 | 126 | 93.8 | 93.9 | 88.7 | –
1 µM | 98 | 90 | – | – | – | – | – | 0.16
3 µM | 108 | 88 | – | – | – | – | – | -0.1
10000 nM | – | – | 88.4 | 138 | 73.9 | 85.9 | 64.7 | –

Conditions | drug sensitivity score | relative viability EC50 [µM]
Caco-2 [14] | 0 | –
Caco-2 [19] | – | > 10
Calu-3 [13] | 0 | –
Calu-3 [18] | – | > 10
HepG2 [15] | 1.9 | –
U2OS [11] | 0.6 | –
U2OS [16] | – | > 10
Vero E6 [12] | 3.3 | –

CCOC(=O)C1=C[C@]2(CC)CCCN3CCc4c(n1c1ccccc41)[C@@H]32 [vinpocetine]
cell viability [%]
Conditions | Caco-2 [6] | Calu-3 [5] | HepG2 [7] | U2OS [3] | Vero E6 [4]
1 nM | 92 | 106 | 97.7 | 97.6 | 98.8
10 nM | 96.7 | 95.9 | 94 | 101 | 87.7
100 nM | 91.7 | 94 | 99.7 | 102 | 95.9
1000 nM | 98.4 | 105 | 89.7 | 101 | 91.8
10000 nM | 104 | 98.3 | 108 | 101 | 107

Conditions | drug sensitivity score | relative viability EC50 [µM]
Caco-2 [14] | 0 | –
Caco-2 [19] | – | > 10
Calu-3 [13] | 0 | –
Calu-3 [18] | – | > 10
HepG2 [15] | 0 | –
HepG2 [20] | – | > 10
U2OS [11] | 0 | –
U2OS [16] | – | > 10
Vero E6 [12] | 0 | –
Vero E6 [17] | – | > 10

Cc1c(C)c2c(c(C)c1O)CC[C@@](C)(CCC[C@H](C)CCC[C@H](C)CCCC(C)C)O2 [vitamin-E]
cell viability [%]
Conditions | Caco-2 [6] | Calu-3 [5] | HepG2 [7] | U2OS [3] | Vero E6 [4]
1 nM | 101 | 98.9 | 93.6 | 99.9 | 86.5
10 nM | 89.8 | 82.6 | 100 | 95.1 | 99.4
100 nM | 97.1 | 102 | 91 | 103 | 88.5
1000 nM | 94.8 | 99.3 | 106 | 94.9 | 101
10000 nM | 98.5 | 91.7 | 108 | 97.2 | 103

Conditions | drug sensitivity score | relative viability EC50 [µM]
Caco-2 [14] | 0 | –
Caco-2 [19] | – | > 10
Calu-3 [13] | 0 | –
Calu-3 [18] | – | > 10
HepG2 [15] | 0 | –
HepG2 [20] | – | > 10
U2OS [11] | 0 | –
U2OS [16] | – | > 10
Vero E6 [12] | 0 | –
Vero E6 [17] | – | > 10

Cc1cc(C(C)(C)C)cc(C)c1CC1=NCCN1 [xylometazoline]
cell viability [%]
Conditions | Caco-2 [6] | Calu-3 [5] | HepG2 [7] | U2OS [3] | Vero E6 [4]
1 nM | 100 | 98.6 | 107 | 98.5 | 112
10 nM | 74.7 | 92.4 | 93.4 | 93.2 | 98.2
100 nM | 99.8 | 108 | 89.6 | 102 | 97.3
1000 nM | 97.6 | 92 | 116 | 97.3 | 112
10000 nM | 105 | 108 | 101 | 103 | 89.8

Conditions | drug sensitivity score | relative viability EC50 [µM]
Caco-2 [14] | 0 | –
Caco-2 [19] | – | > 10
Calu-3 [13] | 0 | –
Calu-3 [18] | – | > 10
HepG2 [15] | 0 | –
HepG2 [20] | – | > 10
U2OS [11] | 0 | –
U2OS [16] | – | > 10
Vero E6 [12] | 0 | –
Vero E6 [17] | – | > 10

CN(C)C/C=C(/c1ccc(Br)cc1)c1cccnc1 [zimelidine]
cell viability [%]
Conditions | Caco-2 [6] | Calu-3 [5] | HepG2 [7] | U2OS [3] | Vero E6 [4]
1 nM | 100 | 99.7 | 103 | 89.6 | 101
10 nM | 98.9 | 107 | 97.8 | 97.5 | 100
100 nM | 90.6 | 96.6 | 102 | 91.3 | 102
1000 nM | 93.6 | 99.2 | 94.2 | 100 | 96.5
10000 nM | 101 | 93 | 102 | 90.3 | 100

Conditions | drug sensitivity score | relative viability EC50 [µM]
Caco-2 [14] | 0 | –
Caco-2 [19] | – | > 10
Calu-3 [13] | 0 | –
Calu-3 [18] | – | > 10
HepG2 [15] | 0 | –
HepG2 [20] | – | > 10
U2OS [11] | 0 | –
U2OS [16] | – | > 10
Vero E6 [12] | 0 | –
Vero E6 [17] | – | > 10
